From US20100239556A1, “PROMOTING ECM PRODUCTION BY FIBROBLAST CELLS AND/OR PROMOTING MIGRATION OF FIBROBLAST CELLS IN A BIOLOGICAL SYSTEM” (TGR BioScience Pty Ltd., priority 2006, published 2010)

What was measured:
Type in all cases: cell-based, human
HFF cells [1] = experiment: Fibroblast infiltration into INTEGRA scaffold (SMA immunohistochemistry); details: 6 days
Excerpt: INTEGRA® was cut into lcm x lcm pieces using a sterile scalpel, the pieces transferred to a petri dish using sterile forceps and washed four times each with PBS followed by serum-free DMEM, to remove the alcohol storage medium and to equilibrate the porous scaffold for exposure to cells. After the last wash, the INTEGRA® pieces were transferred to the wells of a 12 well tissue culture plate (collagen layer facing up) immersed in media containing proteins having peroxidase activity. This “pre-treatment” of the INTEGRA® with proteins having peroxidase activity was performed for up to 16 hours at 37° C. in a CO2 incubator. […]
Additional experiments were performed as described above using HFF cells and varying the period of application of the proteins having peroxidase activity to include a “pre-treatment” application only (ie INTEGRA® incubated with SBP 25 μg/ml for up to 16 hours prior to the addition of cells), a “pre-treatment” and “post-treatment” application (ie INTEGRA® pre-treated with SBP and SBP added to the culture media once the INTEGRA had been seeded with cells) and a “post-treatment” application only (ie SBP added to the culture media once the INTEGRA® had been seeded with cells). The INTEGRA® was harvested after 6 days in culture and the number of SMA-positive fibroblast cells counted in five representative fields of view of sections from each condition.

HFF cells [2] = experiment: Collagen I in PuraMatrix Peptide Hydrogel (western blot); details: one week
Procedure: Additional experiments were also performed to ensure the effects observed using the INTEGRA® as a three-dimensional framework or scaffold were not limited to a bovine collagen/glycosaminoglycan structure and could be achieved in synthetically derived matrices. For these experiments a PuraMatrix™ Peptide Hydrogel was used. The PuraMatrix Peptide Hydrogel is a synthetic matrix that self assembles into a three-dimensional hydrogel (1% w/v amino acids: 99% water) under physiological conditions with a nanometer scale fibrous structure and an average pore size of 50-200 nm. For these experiments, HFF cells were suspended in a 20% sucrose solution, with or without proteins having peroxidase activity, and added 1:1 to neat (1%) PuraMatrix hydrogel and carefully pipette mixed, so as not to create bubbles. Each cell/gel mix was plated in 24 well plates and allowed to partially set at room temperature for 5 min. Next, DMEM supplemented with either 10, 5 or 2% FCS was very slowly overlayed in a dropwise fashion down the edge of the well so as not to disrupt the gel. Plates were placed in a 37° C. incubator for the mix to completely solidify, and the media was changed twice over 1 hr to equilibrate the gel to pH 7.4. The encapsulated hydrogel was incubated for one week, the bathing culture media removed and RIPA buffer added to the gel for total protein extraction. […]

HFF cells [3] = experiment: Soluble collagen I secreted by fibroblast-populated INTEGRA (ELISA); details: SBP 12.5 μg/ml for 24 hours, ELISA after 72 hours
Procedure: Additional experiments were performed to determine if fibroblast cells populating a three-dimensional framework or scaffold could be stimulated to secrete soluble collagen I into the media bathing the three-dimensional framework or scaffold. For these experiments, HFF cells were seeded onto the INTEGRA® and allowed to populate the scaffold for two weeks under normal culture conditions (10% FCS supplementation). The populated scaffold was then stimulated with a protein having peroxidase activity by immersing it in basal media (DMEM) containing SBP (12.5 μg/ml) for 24 hours. The INTEGRA® was then placed into fresh DMEM and the collagen-I content of the media measured by ELISA after 72 hours.

## soy bean peroxidase [SBP]
HFF cells [1]; SBP 25 μg/ml pre-, pre+post- or post-treatment, versus 10% FBS control
  number of fibroblast cells infiltrating and populating the INTEGRA: major influence on the number of fibroblast cells infiltrating and populating
HFF cells [1]; SBP 25 μg/ml, controls limited to about the top third
  penetration of HFF cells into the scaffold: penetrated the full thickness of the scaffold
HFF cells [2]; SBP 25 μg/ml in 10% FCS versus 10% FCS alone
  collagen I produced in the Hydrogel matrix: produced more collagen I
HFF cells [2]; SBP in 2 or 5% FCS
  collagen I produced in the Hydrogel matrix: relatively more collagen I was produced
HFF cells [3]
  increase in collagen I secreted into the media bathing the scaffold: 2-3 fold
